Assay results from patent US4698347A, “Octahydro-oxazolo[4,5-g]quinolines derivatives and decahydro quinoline intermediates and their use as dopamine D-2 agonists” (Eli Lilly and Company, priority 1986, dated 1987).
Where “and” joins values, the source holds several entries; their conditions need not be identical. Equal values may be shown once.

Assays:
[1] = system: spontaneously hypertensive rats (SHR); assay: Blood pressure and heart rate in anesthetized spontaneously hypertensive rats (SHR), i.v.; type: in vivo, rat; conditions: for % change in BP (mean arterial blood pressure ± standard error) / % change in heart rate (± standard error): four rats
Experimental: The compounds of this invention I, and III are effective in the treatment of hypertension.
Adult male spontaneously hypertensive rats (SHR) (Taconic Farms, Germantown, N.Y.), weighing approximately 300 g. were anesthetized with pentobarbital sodium (60 mg./kg., i.p.). The trachea was cannulated and SHR respired room air. Pulsatile arterial blood pressure was measured from a cannulated carotid artery using a Statham transducer (P23 ID). Mean arterial blood pressure was calculated as diastolic blood pressure plus 1/3 pulse pressure. Cardiac rate was monitored by a cardiotachometer which was triggered by the systolic pressure pulse. Drug solutions were administered i.v. through a catheter placed in a femoral vein. Arterial blood pressure and cardiac rate were recorded on a multichannel oscillograph (Beckman, Model R511A). Fifteen minutes were allowed to elapse following surgery for equilibration of the preparation.
In the table, column 1 gives the name of the drug, column 2 dose in μg/kg, column 3 percent change in mean arterial blood pressure plus or minus standard error and column 4, percent change in heart rate plus or minus standard error. Four rats were used at each dose level.

[2] = system: apomorphine binding sites; assay: Inhibition of 3H-apomorphine binding (vs spiperone sites); conditions: printed as 40 to 1
Excerpt: With trans-(±)-2-methyl-5-n-propyl-4,4a,5,6,7,8,8a,9-octahydrooxazolo[4,5-g]quinoline; the ratio of binding, to apomorphine sites vs spiperone sites is 40 to 1.

CCCN1CCC[C@H]2Cc3nc(N)oc3C[C@@H]21 (racemic) [Trans-(±)-2-amino-5-n-propyl-4,4a,5,6,7,8,8a,9-octahydro-oxazolo[4,5-g]quinoline]
% change in BP (mean arterial blood pressure ± standard error) ([1]; dose 0.1 μg/kg): -18.3 ± 5.7%
% change in heart rate (± standard error) ([1]; dose 0.1 μg/kg): -8.5 ± 2.2%
% change in BP (mean arterial blood pressure ± standard error) ([1]; dose 1 μg/kg): -8.6 ± 1.6%
% change in heart rate (± standard error) ([1]; dose 1 μg/kg): -4.4 ± 0.9%
% change in BP (mean arterial blood pressure ± standard error) ([1]; dose 10 μg/kg): -15.1 ± 1.1%
% change in heart rate (± standard error) ([1]; dose 10 μg/kg): -5.6 ± 0.7%
Duration of change in BP ([1]; dose 100 μg/kg): * (Duration of 15 min or greater)
% change in heart rate (± standard error) ([1]; dose 100 μg/kg): -17.5 ± 2.3% and -19.1 ± 3.4%

CCCN1CCC[C@H]2Cc3nc(C)oc3C[C@@H]21 (racemic) [Trans-(±)-2-methyl-5-n-propyl-4,4a,5,6,7,8,8a,9-octahydro-oxazolo[4,5-g]quinoline]
% change in BP (mean arterial blood pressure ± standard error) ([1]; dose 1 μg/kg): -3.2 ± 0.5%
% change in heart rate (± standard error) ([1]; dose 1 μg/kg): -2.4 ± 0.8%
% change in BP (mean arterial blood pressure ± standard error) ([1]; dose 10 μg/kg): -7.0 ± 1.0%
% change in heart rate (± standard error) ([1]; dose 10 μg/kg): -2.8 ± 0.4%
Duration of change in BP ([1]; dose 100 μg/kg): * (Duration of 15 min or greater)
% change in BP (mean arterial blood pressure ± standard error) ([1]; dose 100 μg/kg): -19.6 ± 1.4%
% change in heart rate (± standard error) ([1]; dose 100 μg/kg): -16.1 ± 7.6%
Duration of change in BP ([1]; dose 1000 μg/kg): * (Duration of 15 min or greater)
% change in BP (mean arterial blood pressure ± standard error) ([1]; dose 1000 μg/kg): -26.2 ± 4.3%
% change in heart rate (± standard error) ([1]; dose 1000 μg/kg): -23.6 ± 4.4%
ratio of binding, to apomorphine sites vs spiperone sites [2]: 40

CCCN1CCC[C@H]2Cc3ncoc3C[C@@H]21 (racemic) [trans-(±)-5-n-propyl-4,4a,5,6,7,8,8a,9-octahydro-oxazolo[4,5-g]quinoline]
% change in BP (mean arterial blood pressure ± standard error) ([1]; dose 1 μg/kg): -5.0 ± 1.2%
% change in heart rate (± standard error) ([1]; dose 1 μg/kg): -3.6 ± 0.5%
% change in BP (mean arterial blood pressure ± standard error) ([1]; dose 10 μg/kg): -10.2 ± 1.0%
% change in heart rate (± standard error) ([1]; dose 10 μg/kg): -4.6 ± 0.6%
Duration of change in BP ([1]; dose 100 μg/kg): * (Duration of 15 min or greater)
% change in BP (mean arterial blood pressure ± standard error) ([1]; dose 100 μg/kg): -27.4 ± 20%
% change in heart rate (± standard error) ([1]; dose 100 μg/kg): -28.5 ± 2.6%
Duration of change in BP ([1]; dose 1000 μg/kg): * (Duration of 15 min or greater)
% change in BP (mean arterial blood pressure ± standard error) ([1]; dose 1000 μg/kg): -37.7 ± 4.9%
% change in heart rate (± standard error) ([1]; dose 1000 μg/kg): -31.8 ± 3.7%
